These results are taken from patent US20230167458A1, “FORSKOLIN-INDUCIBLE PROMOTERS AND HYPOXIA-INDUCIBLE PROMOTERS” (ASKLEPIOS BIOPHARMACEUTICAL, INC., priority 2020, published 2023).

Data set [1] concerns CHO-GS-KSV1 cell line. Briefly: SEAP expression in stably transfected CHO-GS-KSV1, forskolin or NKH477 induction. As to conditions: for optimal inducer concentration to induce expression from RTV-019: stably transfected CHO-GS-KSV1/CHO-K1SV, SEAP after 24 hours, 2, 5, 9, 18 or 32 pM tested. In kind it is cell-based, chinese hamster. How it is done: The forskolin-inducible promoters were then tested in a stably transfected CHO-GS-KSV1 cell line.
• CD-CHO media (Life technologies, CAT #10743029) • Corning 125 mL Polycarbonate Erlenmeyer Flask with Vent Cap (CAT #734-1885). • Gene Pulser® Electroporation Cuvettes, 0.4 cm gap (BioRad, CAT #165-2088) • Gene Pulser Xcell Total System (BioRad, CAT, #1652660) • GS-vector DNA ([…] in 100 μL TE buffer) linearised with Sca1 • Suspension cultures of CHOK1SV GS-KO host cells.
Cell suspensions of 6×10^5 cells per mL were incubated on an orbital shaker set at 8% CO2, 20% O2, 37° C., 85% relative humidity and 140 rpm overnight. 2.86×10^7 cells were centrifuged at 200 g for 3 minutes. Media was then aspirated and cell pellet resuspended in 2 mL fresh CD-CHO media to obtain a concentration of 1.43×10^7 cells per mL. 700 μL of cell suspension was added to each of two electroporation cuvettes each containing […] of linearised DNA in 100 μL of sterile TE buffer (Thermofisher, 12090015). Each cuvette was electroporated, delivering a single pulse of 300V, […] with resistance to infinity. Immediately after delivery of pulse electroplated cells were transferred to Erlenmeyer 125 mL flask containing 20 mL of CD-CHO media pre-warmed to 37° C. Electroporated cells from two cuvettes are combined into a single 125 mL flask to generate one pool of cells. Cells are cultured on an orbital shaker set at 8% CO2, 20% O2, 37° C., 85% relative humidity and 140 rpm. Cells are transferred to fresh CD-CHO media 24 hours after transfection and cell cultures monitored and given fresh CD-CHO media every 2-4 days. Usually after about 10-14 days cell numbers will be high enough to start passaging.
The transfected DNA was the pXC-17.4 expression vector (Lonza Biologics plc) where one of the promoter constructs (or a control promoter (CMV-IE) have been cloned upstream of the secreted alkaline phosphatase (SEAP) gene, which had been cloned into the multiple cloning site within the vector expression cassette. Promoters were closed into the pXC-17.4 vector using Gibson assembly. The pXC-17.4 expression vector is designed for making stable cell lines in the CHO-GSK1SV cell line as it contains the […] gene which has been knocked out of the cell line. Therefore, selection of cells in glutamine drop-out medium will select for cells that have stably integrated the plasmid.
The responsiveness of the RTV-019 promoter to different concentrations of forskolin and […] was tested in the stably transfected CHO-GS-KSV1 cell line. To this end, the stably transfected CHO-GS cells were seeded at 500,000 cells/ml and allowed to grow for 24 hrs. At this point the cells were induced by addition of the respective concentrations of forskolin and NKH477 and SEAP expression was measured as described below after 24 hours.
The promoter activity and inducibility of FMP-02, FORCYB-001, RTV-017, FORCSV-10, FOR-CMC-009, FLP-01 and RTV-019 were also tested in the stably transfected CHO-GS-KSV1 cell line. To this end, the stably transfected CHO-GS cells were seeded at 500,000 cells/ml and allowed to grow for 24 hrs. At this point the cells were exposed to […] forskolin or […] NKH477 for 24 hours. After this point, the SEAP activity in the medium was assessed as described below.
SEAP Reporter Gene Assay, chemiluminescent (Roche, CAT #11 779 842 001) was used to measure SEAP activity as per the manufacturer's protocol. All reagents and samples were fully pre-equilibrated at room temperature. Culture supernatant was collected from the stably transfected CHO-GS at the specific time points (0 h and 24 h). The supernatant was diluted 1:4 in dilution buffer and heat treated at 65° C. for 30 minutes. The heat-treated sample was then centrifuged for 30 s at maximum speed. 50 μl of the heat-treated sample was then added to 5 μl of inactivation buffer and incubated for 5 min at room temperature. 50 μl of substrate reagent was then added and incubated for 10 min at room temperature. […]

The subject of data set [2] is Huh7 human liver cell line. Briefly: Luciferase expression from promoters in pAAV vector (with ITRs) in Huh7, forskolin or NKH477 induction. The arrangement: fold induction with forskolin: dose or concentration left out as unconfirmed.
Description: The forskolin-inducible promoters RTV-017, RTV-019 and FORCYB1 were then used to drive expression of luciferase in a pAAV vector in the Huh7 human liver cell line. […] This experiment was performed to investigate the effect of the Inverted Terminal Repeats (ITRs) on the activity of the promoters.
The cells were seeded, transfected and induced as described above. Luciferase expression was measured as described above. In this experiment, the cells were induced by using 20 pM forskolin or 7.2 pM of the water soluble derivative NKH477.

As to `C=C[C@@]1(C)CC(=O)[C@]2(O)[C@@]3(C)[C@@H](O)CCC(C)(C)[C@@H]3[C@H](O)[C@H](OC(C)=O)[C@@]2(C)O1` [Forskolin], the “optimal inducer concentration to induce expression from RTV-019” value in data set [1] is “about 18 pM”; in data set [1] (listed as forskolin) it was 18 µM.
As to `C=C[C@@]1(C)CC(=O)[C@]2(O)[C@@]3(C)[C@@H](O)CCC(C)(C)[C@@H]3[C@H](OC(=O)CCN(C)C)[C@H](OC(C)=O)[C@@]2(C)O1.Cl` [NKH477, NKH 477], in data set [1] (stable CHO-GS-KSV1, 7.2 µM NKH477 vs 20 µM forskolin), the “potency as inducer of the promoters compared with forskolin” value is reported as “slightly more potent inducer”. In addition, the optimal inducer concentration to induce expression from RTV-019 is 8 µM in data set [1] and “about 8 pM” in data set [1] (listed as NKH 477).

B1: FORCYB1: synthetic forskolin-inducible promoter, SEQ ID NO: 45; 5× cAMPRE and 4× AP1 TFBS and YB-TATA (nucleic acid)
DNA: TGACGTCACGATTACCATTGACGTCACGATTACCATTGACGTCACGATTACCATTGACGTCACGATTACCATTGACGTCAGCGATTAAGATGACTCAGCGATTAAGATGACTCAGCGATTAAGATGACTCAGCGATTAAGATGACTCAGCGATTAATCCATATGCTCTAGAGGGTATATAATGGGGGCCACTAGTCTACTACCAGAAAGCTTGGTACCGAGCTCGGATCCAGCCACC
modifications: synthetic forskolin-inducible promoter
For the molecule B1, in data set [2] (Huh7), the “fold induction with forskolin” value is 65 fold and the “luciferase activity without induction (background)” value is given as “low background activity”. Moreover, the “fold induction with NKH477” value in data set [2] (Huh7, 7.2 pM NKH477) came out at 30 fold. Also, in data set [2] (Huh7, or 7.2 pM NKH477), the “luciferase activity following induction” value is “high activity”.
